Where two headings read alike, the source gives them in different places.
Assays:
Type in all cases: cell-based
[1] = system: MCF-7 cells; test: Radioactive glucose uptake in MCF-7 cells; conditions: Homo sapiens, MCF7, 3H-2DG uptake
Experimental: Example 157: Radioactive Glucose Uptake in MCF-7 Cells
Assay Protocol • 1. Seed approximately 12,000 MCF-7 cells cultured without insulin per well in 96-well plates (BIOCOAT, #356690) and let the cells sit in hood for 30 min. (Cell culture medium: DMEM+10% FBS). • 2. Put the cell culture plates in TC incubator (5% CO2, 37° C.) and incubate overnight. • 3. Take out the cell plates and wash with prewarmed KRH buffer (37° C.) three times using BioTek plate washer. (KRH buffer preparation: 136 mM NaCl, 4.7 mM KCl, 1.25 mM MgCl2, 1.2 mM CaCl2), 20 mM HEPES, 0.1 mg/ml sodium pyruvate, 0.1% BSA, pH 7.4). • 4. Compound preparation and treatment: • a) Add 12 ul compound stock in 100% DMSO to the first column of Echo LDV plate • b) Serially dilute the compound solution in 100% DMSO (4 uL+8 uL DMSO) using Bravo for 9 doses • c) Dispense 350 nL compounds using Echo to the working plate. • d) i) Without compound preincubation condition, dispense 116 uL KRH buffer containing tritiated 2-deoxy-D-glucose (3H-2DG) and 2-deoxy-D-glucose (2DG) to the working plate and mix. • ii. With compound preincubation condition, dispense 110 uL KRH buffer only to the working plates and mix • e) Keep the compound working plate at 37° C. incubator until use • 5. Discard the KRH buffer (cells were kept in KRH buffer for 10-15 min before 2-DG addition) and transfer 100 uL compound working solution out to the cell culture plate using Bravo. Incubate for 20 mins at 37° C. (2DG final at 0.2 mM, 3H-2DG at 10 uCi/mL). • 6. Add prewarmed 50 uL KRH buffer (37° C.) containing 60 mM cold 2DG to the wells to stop the 2DG uptake using Multidrop combi • 7. Wash the cells with prewarmed PBS three times using BioTek plate washer • 8. Add 50 uL lysis buffer (0.1 M NaOH) into the assay plate to lyse the cells using Bravo and shake at 800 rpm for 30 min. • 9. Mix and transfer 20 uL lysate to a new white plate (Corning, #3610) and add 200 uL MicroScint-20 using Bravo • 10. Shake the plate at 1000 rpm for 30 min and count in a MicroBeta plate reader.

[2] = system: pS6K1 (p-p70 S6 Kinase (Thr389)) in MCF-7 cells; test: AlphaLISA Ultra pS6K1 assay; conditions: 2 hours compound incubation
Outline: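 MCF-7 cells seeded 20–24 h, medium refreshed 2 h, then treated 2 h with compound (0.5% DMSO final). Lysates probed for Thr389-phosphorylated p70 S6K by AlphaLISA Ultra, 2 h acceptor then 2 h donor bead incubation, read on a multimode reader.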

[3] = system: pAKT (p-Akt 1/2/3 (Ser473)) in MCF-7 cells; test: AlphaLISA Ultra pAKT assay; conditions: Homo sapiens, MCF7, 2 hours compound incubation
Outline: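 MCF-7 cells seeded 20-24 h, medium refreshed for 2 h, then treated with compounds for 2 h at 0.5% final DMSO. Lysates frozen at −80 °C, then pAKT detected by AlphaLISA with acceptor and donor beads, 2 h each.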

| SMILES | IC50 [1] [nM] | IC50 ([2]; Homo sapiens, MCF7, 2 h) [nM] | IC50 [3] [nM] | IC50 ([2]; read-out: pS6K1 in MCF7: IC50) [nM] |
| --- | --- | --- | --- | --- |
| Cc1cc(C)c(C(=O)N2CCN(c3cccnn3)[C@H](CN)C2)c(C)c1NC1CCN(c2ccc(F)cc2C#N)CC1 [I-195, (R)-2-(4-(3-(3-(aminomethyl)-4-(pyridazin-3-yl)piperazine-1-carbonyl)-2,4,6-trimethylphenylamino)piperidin-1-yl)-5-fluorobenzonitrile] | 3000 to 5000 | 1000 to 3000 | > 10000 | – |
| Cc1cc(C)c(C(=O)N2CCN(c3ccccc3S(N)(=O)=O)C[C@@H]2C)nc1NC1CCN(c2ccccc2C#N)CC1 [I-26, (S)-2-(4-(6-(1-(2-Cyanophenyl)piperidin-4-ylamino)-3,5-dimethylpicolinoyl)-3-methylpiperazin-1-yl)benzenesulfonamide] | 10 to 1000 | 10 to 1000 | > 10000 | – |
| Cc1ccc(C(=O)N2CCN(c3cccnc3S(N)(=O)=O)CC2)c(C)c1NC1CCN(c2ccccc2C#N)CC1 [I-121, 3-(4-(3-(1-(2-cyanophenyl)piperidin-4-ylamino)-2,4-dimethylbenzoyl)piperazin-1-yl)pyridine-2-sulfonamide] | 10 to 1000 | 10 to 1000 | > 10000 | – |
| Cc1cc(C)c(C(=O)N2CCN(c3ccccc3S(C)(=N)=O)CC2)cc1NC1CCN(c2ccccc2C#N)CC1 (single isomer, unassigned) [I-49, 2-(4-{[5-(4-{2-[(S or R)-imino(methyl)oxo-λ^6-sulfanyl]phenyl}piperazine-1-carbonyl)-2,4-dimethylphenyl]amino}piperidin-1-yl)benzonitrile] | 10 to 1000 | – | > 10000 | 10 to 1000 |
| Cc1cc(C)c(C(=O)N2CCN(c3cccc(F)c3[S@@](C)(=N)=O)C[C@@H]2C)c(C)c1NC1CCN(c2ccc(F)cc2C#N)CC1 [I-191, 5-fluoro-2-(4-(3-((2S)-4-(3-fluoro-2-(S-methylsulfonimidoyl)phenyl)-2-methylpiperazine-1-carbonyl)-2,4,6-trimethylphenylamino)piperidin-1-yl)benzonitrile] | 10 to 1000 | 10 to 1000 | > 10000 | – |
| Cc1cc(C)c(C(=O)N2CCN[C@@H](CO)C2)cc1NC1CCN(c2ccccc2C#N)CC1 [I-6, (R)-2-(4-(5-(3-(Hydroxymethyl)piperazine-1-carbonyl)-2,4-dimethylphenylamino)piperidin-1-yl)benzonitrile] | > 10000 | > 10000 | > 10000 | – |
| Cc1cc(C)c(C(=O)N2CCN(c3ccccc3S(N)(=O)=O)CC2)cc1N[C@@H]1CCN(c2ccccc2C#N)C[C@@H]1C [I-171, 2-(4-(5-(((3S,4R)-1-(2-cyanophenyl)-3-methylpiperidin-4-yl)amino)-2,4-dimethylbenzoyl)piperazin-1-yl)benzenesulfonamide] | 10 to 1000 | 10 to 1000 | > 10000 | – |
| Cc1cc(C)c(C(=O)N2CCN(c3ccccc3C#N)[C@H](CO)C2)cc1NC1CCN(c2ccccc2C#N)CC1 (single isomer, unassigned) [I-79, 2-[4-({5-[(3S or 3R)-4-(2-Cyanophenyl)-3-(hydroxymethyl)piperazine-1-carbonyl]-2,4-dimethylphenyl}amino)piperidin-1-yl]benzonitrile] | 10 to 1000 | 10 to 1000 | > 10000 | – |
| Cc1cc(C)c(C(=O)N2CCN(c3cccnc3S(N)(=O)=O)CC2)c(C)c1NC1CCN(c2ccccc2C#N)CC1 [I-2, 3-(4-(3-(1-(2-Cyanophenyl)piperidin-4-ylamino)-2,4,6-trimethylbenzoyl)piperazin-1-yl)pyridine-2-sulfonamide] | 10 to 1000 | 10 to 1000 | > 10000 | – |
| Cc1cccc(N2CCN(C(=O)c3cc(NC4CCN(c5ccccc5C#N)CC4)c(C)cc3C)C[C@H]2CO)n1 [I-102, (S)-2-(4-(5-(3-(Hydroxymethyl)-4-(6-methylpyridin-2-yl)piperazine-1-carbonyl)-2,4-dimethylphenylamino)piperidin-1-yl)benzonitrile] | 10 to 1000 | 10 to 1000 | > 10000 | – |
